Source: publication PMC5770468, “Cardiac glycoside/aglycones inhibit HIV-1 gene expression by a mechanism requiring MEK1/2-ERK1/2 signaling” (Scientific Reports, 2018)

What was measured:
[1] = test system: HIV-1 Gag expression; assay: HIV-1 Gag-GFP expression in HeLa rtTA-HIV(Gag-GFP) cells; assay type: cell-based; conditions: 220 nM
Procedure: Figure 7 Activation of the MEK1/2-ERK1/2 signaling pathway suppresses HIV-1 gene expression. HeLa rtTA-HIV(Gag-GFP) cells were pre-treated overnight (~15 h) with/without an inhibitor of MEK1/2 (12 μM U0126, MEKi, white), p38α/β/β2 (15 μM SB203580, p38i, light gray), JNK1/2/3 (1.25 μM SP600125, JNKi, hatched), or NCX (5 μM KB-R7943, NCXi, gray) and treated with a MEK1/2-ERK1/2 activator, anisomycin, to isolate the pathway signal as described (and run in parallel for verification of inhibitor activity) in Figures 6 and 5d–f. Cells were monitored for HIV-1 gene expression by detecting Gag-GFP fluorescence in cell lysates (35 μg) resolved on reducing SDS-PAGE, levels of ERK activation by immunoblotting of phospho- and total-ERK from cell lysates, and extent of viral RNA expression by qRT-PCR of mRNAs extracted. […] RNAs were quantified by qRT-PCR as described in Figures 4a,b. […]
Using the same methods and conditions described for HeLa rtTA-HIV-ΔMls cells, HeLa rtTA-HIV(Gag-GFP) cells were seeded in 48-/12-well plates and pretreated with/without pathway inhibitor prior to treatment with drug/compounds and Dox. […] HIV-1 gene expression was determined by detecting Gag-GFP fluorescence in cells by plate scans using a Typhoon Imager 9400 (Amersham Biosciences) or Typhoon FLA 9400 (GE) on ImageQuant, cell lysates by SDS-PAGE captured on ChemiDoc MP, or cell lysates by p24^CA ELISA. […]

[2] = test system: ERK1/2; assay: ERK1/2 activation (phospho/total) by western blot in HeLa rtTA-HIV(Gag-GFP) cells; assay type: cell-based, human; conditions: relative to DMSO (+)
Procedure: Figure 6 CSs control HIV-1 gene expression through intracellular signaling. HeLa rtTA-HIV(Gag-GFP) cells were pre-treated with/without pathway inhibitor overnight (~15 h) and treated with ~IC80s of CSs. […] (a–c) ERK1/2, MK-2, and JNK1/2/3 are activated upon treatment of cells with CSs (n ≥ 4–6, 3–4, and 3–6, resp., mean, s.e.m.). Graphs quantifying the activation level (phospho/total protein) of each MAP/MAPK by western blot. In (a), the results of pre-treating cells with a MEK1/2 inhibitor (12 μM U0126, MEKi) on ERK1/2 activation is also shown and a representative immunoblot is provided in Supplementary Figure S9c. (d) Representative immunoblots of MAP/MAPK activation levels from (a–c). (e–g) MEK1/2 activation may be involved in CS inhibition of HIV-1 gene expression. The signaling pathway(s) used by a CS to inhibit HIV-1 expression was determined by detecting Gag-GFP fluorescence in cell lysates (~35 μg) by reducing SDS-PAGE after pre-treatment of cells with a MEK1/2 (12 μM U0126, white), p38α/β/β2 (15 μM SB203580/p38i, gray), or JNK1/2/3 (1.25 μM SP600125/JNKi, hatched) inhibitor (n ≥ 5–7, 4–8, and 3–7, resp., mean, s.e.m.). Results were shown relative to DMSO (+). […]
Figure 7 Activation of the MEK1/2-ERK1/2 signaling pathway suppresses HIV-1 gene expression. […] RNAs were quantified by qRT-PCR as described in Figures 4a,b. […]

COc1ccc(C[C@H]2NC[C@H](O)[C@H]2OC(C)=O)cc1 [anisomycin, Anisomycin]
HIV-1 Gag expression [1]: inhibited
ERK1/2 activation [2]: activated
